Experimental data reported in patent US20060160893A1, “Method for enhancing the quality of berry fruit” (priority 2001, published 2006).

How the values were obtained:
[1] = tested on: Botrytis gray mold of red raspberry; assay: Example 6: field application, Botrytis gray mold of red raspberry, storage evaluation; format: in vivo
Method: (§1) All examples are conducted under field conditions using accepted grower practices. The mixtures of I and II are applied to field grown plants, not as a post harvest berry treatment.
(§2) The use of corrected means is standard practice in field evaluations of pesticides. Corrected means are calculated as follows: [formula]
(§3) In the following examples, Fungicide A=a mixture of cyprodinil (I) and fludioxonil (II) (mixing ratio 1.5:1) applied as a 62.5% by weight water dispersible granule (WG) formulation.
Fungicide A is applied to field grown red raspberry and shelf-life evaluations made.
Healthy berries are harvested from each treatment and placed into storage and evaluated for Botrytis control (see table below).

[2] = tested on: Botrytis gray mold of strawberry; assay: Example 1: field application, Botrytis gray mold of strawberry, cool storage shelf-life evaluation; format: in vivo; conditions: for % Control: 7 day storage, relative to untreated check
Method: as §1, §2, §3
Performance of Fungicide a Against Botrytis Gray Mold of Strawberry. Fungicide A is applied in the field; berries are then harvested and placed into cool storage for shelf-life evaluations (no additional sprays were made after harvest).

SMILES: O=C1C2CC=CCC2C(=O)N1SC(Cl)(Cl)Cl (stereo not drawn) [Captan, captan]
- % Botrytis Infect Berries (6 Day Storage Rating) [1]: 88.2%
- % Botrytis Disease Control (6 Day Storage Rating) ([1]; relative to untreated check): 7%
- % Control ([2]; inoculated): 28%
- % Control ([2]; non-inoculated): 70%
- % Pest Incidence Fruit Rating 7 Day Storage Rating Inoculated ([2]; strawberry variety 'Chandler', inoculated): 51%
- % Pest Incidence Fruit Rating 7 Day Storage Rating Non-inoculated ([2]; strawberry variety 'Chandler', non-inoculated): 6%
